Experimental data reported in PMC11126104 (Toxins, 2024).

Columns and labels:
[1] = pH 7
[2] = tested on: Caco-2/HT-29MTX monolayers
in vitro = conditions: human
[3] = rat, in vivo; cited from earlier work
[4] = cited from earlier work

Row | Compound | intestinal bioaccessibility, range of values [1] | FA (%) absorption category [2] | toxicity / cell viability (MTT) (Caco-2/HT-29MTX cells) | Papp (in vitro) | absorption within the intestinal tract [3] | log Po/w [4]
1 | CC(C)[C@H]1C(=O)O[C@H](C(C)C)C(=O)N(C)[C@@H](C(C)C)C(=O)O[C@H](C(C)C)C(=O)N(C)[C@@H](C(C)C)C(=O)O[C@H](C(C)C)C(=O)N1C [ENNB, enniatin B] | 0.6-98.2% | High | not affecting cell viability | 91.6 ×10⁻⁶ cm/s |  | 
2 | COc1cc2c(c3oc4cccc(O)c4c(=O)c13)[C@@H]1C=CO[C@@H]1O2 [STG, sterigmatocystin] | 1.5-59.3% | High | not affecting cell viability |  |  | 
3 | aflatoxin B1 [AFB1] |  |  | not affecting cell viability |  | nearly total absorption | 2.09
